Measured values: US4719229A, “Antihypercholesterolemic agents” (Merck & Co., Inc., priority 1987, dated 1988)

Target: T1, HMG-CoA reductase (Rattus norvegicus, UniProt P51639)
T1 construct: from tissue; inferred from the cited J. Med. Chem. 1985, 28, 347
T1 sequence (P51639 1-887): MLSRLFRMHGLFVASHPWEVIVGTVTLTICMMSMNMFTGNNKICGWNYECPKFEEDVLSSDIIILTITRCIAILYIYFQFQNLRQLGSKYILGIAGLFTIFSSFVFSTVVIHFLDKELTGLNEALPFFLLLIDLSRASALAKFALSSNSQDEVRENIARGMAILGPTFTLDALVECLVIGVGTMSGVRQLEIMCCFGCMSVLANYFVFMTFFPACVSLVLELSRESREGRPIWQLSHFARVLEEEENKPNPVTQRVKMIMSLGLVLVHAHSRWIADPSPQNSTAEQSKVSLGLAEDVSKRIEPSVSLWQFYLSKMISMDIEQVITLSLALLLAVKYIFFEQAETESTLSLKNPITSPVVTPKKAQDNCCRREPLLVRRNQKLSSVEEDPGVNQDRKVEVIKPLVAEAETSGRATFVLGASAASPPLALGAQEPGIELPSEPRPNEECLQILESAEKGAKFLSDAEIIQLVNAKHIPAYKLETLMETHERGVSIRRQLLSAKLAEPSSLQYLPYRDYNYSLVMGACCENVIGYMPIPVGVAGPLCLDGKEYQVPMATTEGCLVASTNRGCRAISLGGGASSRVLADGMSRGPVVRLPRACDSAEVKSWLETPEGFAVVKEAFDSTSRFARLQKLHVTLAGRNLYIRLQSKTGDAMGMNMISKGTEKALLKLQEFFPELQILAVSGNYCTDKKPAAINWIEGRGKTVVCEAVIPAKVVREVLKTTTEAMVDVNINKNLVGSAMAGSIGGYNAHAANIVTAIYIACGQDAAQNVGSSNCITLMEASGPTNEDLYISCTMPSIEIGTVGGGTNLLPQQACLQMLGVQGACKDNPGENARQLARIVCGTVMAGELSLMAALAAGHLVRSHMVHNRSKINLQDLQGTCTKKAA
Assay: intrinsic HMG-CoA reductase inhibition activity, in vitro protocol of J. Med. Chem., 1985, 28, page 347
Assay type: biochemical
Conditions: tested as the potassium salt
Protocol: The intrinsic HMG-CoA reductase inhibition activity of the claimed compounds is measured in the in vitro protocol described is J. Med. Chem., 1985, 28, page 347.

Q: Which IC50 does the source give for C[C@@H]1CC[C@H]2C(=CC(O)[C@H](C)[C@@H]2CC[C@@H](O)C[C@@H](O)CC(=O)O)C1 (stereo partly shown) here?
A: 5.87 µM
